Like-named read-outs stand apart in the source and are kept apart here.
System: HCV 1b genotype
Assay: HCV Replicon assay (HCV-neo replicon cells, wild-type)
Assay type: cell-based
Conditions: HCV 1b genotype replicon, read-out: 1b EC50 (in μM or range)
Experimental: An HCV Replicon assay was utilized in the present disclosure, and was prepared, conducted and validated as described in commonly owned PCT/US2006/022197 and in O′Boyle et. al. Antimicrob Agents Chemother, 2005 April; 49(4):1346-53. Assay methods incorporating luciferase reporters have also been used as described (Apath.com).
HCV-neo replicon cells and replicon cells containing mutations in the NS5A region were used to test the currently described family of compounds. The compounds were determined to have more than 10-fold less inhibitory activity on cells containing mutations than wild-type cells. Thus, the compounds of the present disclosure can be effective in inhibiting the function of the HCV NS5A protein and are understood to be as effective in combinations as previously described in application PCT/US2006/022197 and commonly owned WO/04014852. Further, the compounds of the present disclosure can be effective against the HCV 1b genotype. It should also be understood that the compounds of the present disclosure can inhibit multiple genotypes of HCV. […] In one embodiment, compounds of the present disclosure are inhibitory versus 1a, 1b, 2a, 2b, 3a, 4a, and 5a genotypes.

[1] = Hepatitis C virus, range class A-D

SMILES	EC50 (Hepatitis C virus)	EC50 [1]	also measured
CCC(=O)N[C@@H](C(=O)N1CCC[C@H]1C(=O)Nc1ccc(C#Cc2ccc(NC(=O)[C@@H]3CCCN3C(=O)[C@H](NC(=O)CC)c3ccccc3)cc2)cc1)c1ccccc1 [VN24, (2S,2′S)-N,N′-(1,2-ethynediyldi-4,1-phenylene)bis(1-((2R)-2-phenyl-2-(propionylamino)acetyl)-2-pyrrolidinecarboxamide)]	> 10000 nM	–	–
O=CN[C@@H](C(=O)N1CCC[C@H]1C(=O)Nc1ccc(C#Cc2ccc(NC(=O)[C@@H]3CCCN3C(=O)[C@H](NC=O)c3ccccc3)cc2)cc1)c1ccccc1 [VN11, (2S,2′S)-N,N′-(1,2-ethynediyldi-4,1-phenylene)bis(1-((2R)-2-formamido-2-phenylacetyl)-2-pyrrolidinecarboxamide)]	0.01 nM	–	–
CC(=O)N[C@@H](C)C(=O)N1CCC[C@H]1C(=O)Nc1ccc(C#Cc2ccc(NC(=O)[C@@H]3CCCN3C(=O)[C@H](C)NC(C)=O)cc2)cc1 [VN15, (2S,2′S)-N,N′-(1,2-ethynediyldi-4,1-phenylene)bis(1-((2S)-2-acetamidopropanoyl)-2-pyrrolidinecarboxamide)]	–	100 to 999 nM	–
O=C(Nc1ccc(C#Cc2ccc(NC(=O)[C@@H]3CCCN3C(=O)[C@@H](O)c3ccccc3)cc2)cc1)[C@@H]1CCCN1C(=O)[C@@H](O)c1ccccc1 [Example D41, (2S,2′S)-N,N′-(1,2-ethynediyldi-4,1-phenylene)bis(1-((2S)-2-hydroxy-2-phenylacetyl)-2-pyrrolidinecarboxamide)]	–	< 4.57 nM	–
C[C@](O)(C(=O)N1CCC[C@H]1C(=O)Nc1ccc(C#Cc2ccc(NC(=O)[C@@H]3CCCN3C(=O)[C@](C)(O)c3ccccc3)cc2)cc1)c1ccccc1 [VN2, (2S,2′S)-N,N′-(1,2-ethynediyldi-4,1-phenylene)bis(1-((2R)-2-hydroxy-2-phenylpropanoyl)-2-pyrrolidinecarboxamide)]	–	< 4.57 nM	–
O=C(CC1CC1)Nc1ccc(C#Cc2ccc(NC(=O)[C@@H]3CCCN3C(=O)Cc3ccccc3)cc2)cc1 [Example D16, N-(4-((4-((cyclopropylacetyl)amino)phenyl)ethynyl)phenyl)-1-(phenylacetyl)-L-prolinamide]	–	100 to 999 nM	–
CN(C)C1(C(=O)N2CCC[C@H]2C(=O)Nc2ccc(C#Cc3ccc(NC(=O)[C@@H]4CCCN4C(=O)C4(N(C)C)Cc5ccccc5C4)cc3)cc2)Cc2ccccc2C1 [VN16, (2S,2′S)-N,N′-(1,2-ethynediyldi-4,1-phenylene)bis(1-((2-(dimethylamino)-2,3-dihydro-1H-inden-2-yl)carbonyl)-2-pyrrolidinecarboxamide)]	–	4.57 to 99 nM	–
O=C(Nc1ccc(C#Cc2ccc(NC(=O)[C@@H]3CCCN3C(=O)C(c3ccccc3)N3CCC(O)CC3)cc2)cc1)[C@@H]1CCCN1C(=O)C(c1ccccc1)N1CCC(O)CC1 (stereo partly drawn) [VN21, (2S,2′S)-N,N′-(1,2-ethynediyldi-4,1-phenylene)bis(1-((4-hydroxy-1-piperidinyl)(phenyl)acetyl)-2-pyrrolidinecarboxamide)]	0.035 nM	–	–
CN(C)[C@@H](Cc1ccccc1)C(=O)N1CCC[C@H]1C(=O)Nc1ccc(C#Cc2ccc(NC(=O)[C@@H]3CCCN3C(=O)[C@H](Cc3ccccc3)N(C)C)cc2)cc1 [VN29, (2S,2′S)-N,N′-(1,2-ethynediyldi-4,1-phenylene)bis(1-((2S)-2-(dimethylamino)-3-phenylpropanoyl)-2-pyrrolidinecarboxamide)]	–	100 to 999 nM	–
O=C(Nc1ccc(C#Cc2ccc(NC(=O)[C@@H]3CCCN3C(=O)C(c3ccccc3)N3CC[C@H](O)C3)cc2)cc1)[C@@H]1CCCN1C(=O)C(c1ccccc1)N1CC[C@H](O)C1 (stereo partly drawn) [VN50, (2S,2′S)-N,N′-(1,2-ethynediyldi-4,1-phenylene)bis(1-(((3S)-3-hydroxy-1-pyrrolidinyl)(phenyl)acetyl)-2-pyrrolidinecarboxamide)]	0.5 nM	–	–
CN1CCc2ccccc2[C@@H]1C(=O)N1CCC[C@H]1C(=O)Nc1ccc(C#Cc2ccc(NC(=O)[C@@H]3CCCN3C(=O)[C@H]3c4ccccc4CCN3C)cc2)cc1 [VN32, (R,2S,2′S)-N,N′-(4,4′-(ethyne-1,2-diyl)bis(4,1-phenylene))bis(1-((R)-2-methyl-1,2,3,4-tetrahydroisoquinoline-1-carbonyl)pyrrolidine-2-carboxamide)]	–	100 to 999 nM	–
CCCOC(=O)N[C@@H](C(=O)N1CCC[C@H]1C(=O)Nc1ccc(C#Cc2ccc(NC(=O)[C@@H]3CCCN3C(=O)[C@H](NC(=O)OCCC)c3ccccc3)cc2)cc1)c1ccccc1 [VN56, Dipropyl (1,2-ethynediylbis(4,1-phenylenecarbamoyl(2S)-2,1-pyrrolidinediyl((1R)-2-oxo-1-phenyl-2,1-ethanediyl)))biscarbamate]	–	–	EC50 (range class A-D): < 4.57 nM
CC(=O)N1CCC[C@H]1C(=O)Nc1ccc(C#Cc2ccc(NC(=O)[C@@H]3CCCN3C(=O)c3cccc4ccccc34)nc2)cc1 [Example D59, (2S)-1-Acetyl-N-(4-((6-((((2S)-1-(1-naphthoyl)-2-pyrrolidinyl)carbonyl)amino)-3-pyridinyl)ethynyl)phenyl)-2-pyrrolidinecarboxamide]	1480 nM	–	–
CC(C)(C(=O)N1CCC[C@H]1C(=O)Nc1ccc(C#Cc2ccc(NC(=O)[C@@H]3CCCN3C(=O)C(C)(C)c3ccccc3)cc2)cc1)c1ccccc1 [VN3, (2S,2′S)-N,N′-(1,2-ethynediyldi-4,1-phenylene)bis(1-(2-methyl-2-phenylpropanoyl)-2-pyrrolidinecarboxamide)]	–	4.57 to 99 nM	–
N#Cc1cc2ccccc2c(C(=O)N2CCC[C@H]2C(=O)Nc2ccc(C#Cc3ccc(NC(=O)[C@@H]4CCCN4C(=O)c4nc(C#N)cc5ccccc45)cc3)cc2)n1 [Example D32, (2S,2′S)-N,N′-(1,2-ethynediyldi-4,1-phenylene)bis(1-((3-cyano-1-isoquinolinyl)carbonyl)-2-pyrrolidinecarboxamide)]	–	4.57 to 99 nM	–
CC(C)(C)OC(=O)N[C@@H](C(=O)N1CCC[C@H]1C(=O)Nc1ccc(C#Cc2ccc(NC(=O)[C@@H]3CCCN3C(=O)[C@H](NC(=O)OC(C)(C)C)c3ccccc3)cc2)cc1)c1ccccc1 [VN23, Step a, di-tert-butyl(1,2-ethynediylbis(4,1-phenylenecarbamoyl(2S)-2,1-pyrrolidinediyl((1R)-2-oxo-1-phenyl-2,1-ethanediyl)))biscarbamate]	–	< 4.57 nM	–
CC(=O)N1CCC[C@H]1C(=O)Nc1ccc(C#Cc2ccc(NC(=O)[C@@H]3CCCN3C(=O)Cc3ccccc3)cc2)cc1 [Example D22, (2S)-1-Acetyl-N-(4-((4-((((2S)-1-(phenylacetyl)-2-pyrrolidinyl)carbonyl)amino)phenyl)ethynyl)phenyl)-2-pyrrolidinecarboxamide]	140 nM	–	–
O=C(Nc1ccc(C#Cc2ccc(NC(=O)[C@@H]3CCCN3C(=O)Cc3ccccc3)cn2)nc1)[C@@H]1CCCN1C(=O)Cc1ccccc1 [Example D52, (2S,2′S)-N,N′-(6,6′-(ethyne-1,2-diyl)bis(pyridine-6,3-diyl))bis(1-(2-phenylacetyl)pyrrolidine-2-carboxamide)]	–	4.57 to 99 nM	–
COc1ccc2c(C(=O)N3CCC[C@H]3C(=O)Nc3ccc(C#Cc4ccc(NC(=O)[C@@H]5CCCN5C(=O)c5nc(Cl)cc6cc(OC)ccc56)cc4)cc3)nc(Cl)cc2c1 [Example D35, (2S,2′S)-N,N′-(1,2-ethynediyldi-4,1-phenylene)bis(1-((3-chloro-6-methoxy-1-isoquinolinyl)carbonyl)-2-pyrrolidinecarboxamide)]	94 nM	–	–
O=C(Nc1ccc(C#Cc2ccc(NC(=O)[C@@H]3CCCN3C(=O)[C@H](O)c3ccccc3)cc2)cc1)[C@@H]1CCCN1C(=O)[C@H](O)c1ccccc1 [Example D43, (2S,2′S)-N,N′-(1,2-ethynediyldi-4,1-phenylene)bis(1-((2R)-2-hydroxy-2-phenylacetyl)-2-pyrrolidinecarboxamide)]	–	< 4.57 nM	–
CC[C@@H](C(=O)N1CCC[C@H]1C(=O)Nc1ccc(C#Cc2ccc(NC(=O)[C@@H]3CCCN3C(=O)[C@H](CC)c3ccccc3)cc2)cc1)c1ccccc1 [VN7, (2S,2′S)-N,N′-(1,2-ethynediyldi-4,1-phenylene)bis(1-((2R)-2-phenylbutanoyl)-2-pyrrolidinecarboxamide)]	–	< 4.57 nM	–
CN(C)C1(C(=O)N2CCC[C@H]2C(=O)Nc2ccc(C#Cc3ccc(NC(=O)[C@@H]4CCCN4C(=O)C4(N(C)C)CCc5ccccc54)cc3)cc2)CCc2ccccc21 (stereo partly drawn) [VN41, (2S,2′S)-N,N′-(1,2-ethynediyldi-4,1-phenylene)bis(1-((1-(dimethylamino)-2,3-dihydro-1H-inden-1-yl)carbonyl)-2-pyrrolidinecarboxamide)]	–	< 4.57 nM	–
CN(CC(N)=O)C(C(=O)N1CCC[C@H]1C(=O)Nc1ccc(C#Cc2ccc(NC(=O)[C@@H]3CCCN3C(=O)C(c3ccccc3)N(C)CC(N)=O)cc2)cc1)c1ccccc1 (stereo partly drawn) [VN45, (2S,2′S)-N,N′-(1,2-ethynediyldi-4,1-phenylene)bis(1-(((2-amino-2-oxoethyl)(methyl)amino)(phenyl)acetyl)-2-pyrrolidinecarboxamide)]	–	4.57 to 99 nM	–
O=C(CC1CC1)Nc1ccc(C#Cc2ccc(NC(=O)[C@@H]3CCCN3C(=O)[C@H]3CCCO3)cc2)cc1 [Example D23, N-(4-((4-((cyclopropylacetyl)amino)phenyl)ethynyl)phenyl)-1-((2R)-tetrahydro-2-furanylcarbonyl)-L-prolinamide]	2600 nM	–	–
CN(CC(N)=O)C(C(=O)N1CCC[C@H]1C(=O)Nc1ccc(C#Cc2ccc(NC(=O)[C@@H]3CCCN3C(=O)C(c3ccccc3)N(C)CC(N)=O)cc2)cc1)c1ccccc1 (single isomer, unassigned) [VN34]	–	< 4.57 nM	–

Reference: patent US8383094B2, “Hepatitis C virus inhibitors” (Bristol-Myers Squibb Company, priority 2008, dated 2013)
